Results published in US11555010B2, “Diamide antimicrobial agents” (BROWN UNIVERSITY, priority 2019, dated 2023).
≈ marks a conversion by molar mass, not a printed value.

What was measured:
[1] = test system: B. subtilis; test: Resazurin antimicrobial MIC assay; type: cell-based; conditions: Bacillus subtilis, read-out: Apparent MIC Value
Description: Bacillus subtilis ATCC 11775 was plated on agar from a 20% glycerol stock solution stored at −80′° C. Inoculated plates were then incubated at 37° C. under aerobic conditions for 16 hours. Single cultures were transferred to Nutrient Broth (NB) and cultured for 16 hours under the same conditions. […] The assay is performed in LB broth. […] Compounds are tested […] for their capacity to inhibit B. subtilis growth. In order to determine growth inhibition, a resazurin whole-cell assay was used (Kuhn, et al., 2014, Medchemcomm 5:1213-1217). Briefly, second-passage bacteria are incubated with inhibitor in a 96-well plate for four hours, then resazurin dye is added and color/fluorescence change is observed. The resazurin is naturally a blue color, but with reductive species produced during bacterial growth, it is reduced to resorufin, which appears pink. Resorufin is also fluorescent and can be measured by a plate-reader. The disclosures of each and every patent, patent application, and publication cited herein are hereby incorporated herein by reference in their entirety.

[2] = test system: E. Coli; test: Resazurin antimicrobial MIC assay; conditions: Escherichia coli, read-out: Apparent MIC Value
Description: The assay is performed in LB broth. Resazurin sodium salt powder is prepared in distilled water and filter sterilized at 0.001% (w/v) for MIC assays and at 0.01% (w/v) for single concentration assays. Compounds are first screened in MIC assays to assess whether growth inhibition is dependent on inhibitor concentration. The plates are incubated for 30 min under aerobic conditions. Growth controls containing no inhibitory compound, sterility controls without inoculation, and controls containing a known antibiotic, chloramphenicol, are also included. […] Minimum inhibitory concentration (MIC) was determined as the lowest drug concentration that prevented the color change from blue to pink. Inhibition was quantified by observation of color change. […] Inhibition was quantified by fluorescence readings from plate reader SAFIRE, Firmware: V 2.2008/02 Safire. […] Plates are held at 37° C. and fluorescence measurements are taken at 0, 5, 10, 20, 30, and 60 min after addition of dye. Lower fluorescence values correlate to greater degrees of inhibition.
Briefly, second passage cells of B. subtilis 11774 were grown in LB media and standardized to an OD600 nm=1.0. Diamides were analyzed via serial dilution into LB media in microtitre plates. […] MICs were read directly off the plate or via fluorescence (λex 560 nm, λem 590 nm). MICs were recorded as the lowest concentration that inhibited growth.

[3] = test system: E. coli; conditions: cited from earlier work

SMILES | MIC [1] [µM] | other results
CC(N)C(C(=O)NC1CCCCC1)N(C(=O)c1ccccc1I)C1CCCCC1 (stereo not shown) [Example 2] | 5 (≈ 2.56 µg/mL) | 
NCC(C(=O)NC1CCCCC1)N(C(=O)c1ccccc1I)C1CCCCC1 (stereo not shown) [Example 3, N-(3-amino-1-(cyclohexylamino)-1-oxopropan-2-yl)-N-cyclohexyl-2-iodobenzamide] | 5 (≈ 2.49 µg/mL) | 
O=C(NC1CCCCC1)C(C1CCNCC1)N(C(=O)c1ccccc1I)C1CCCCC1 (stereo not shown) [Example 6, N-cyclohexyl-N-(2-(cyclohexylamino)-2-oxo-1-(piperidin-4-yl)ethyl)-2-iodobenzamide] |  | MIC [2]: 5 µM (≈ 2.76 µg/mL)
CC1=N[C@@H]2[C@@H](O)[C@H](O)[C@@H](CO)O[C@@H]2S1 [NAG-thiazoline] |  | effect on the viability of E. coli [3]: no effect
